From patent publication EP3146981A1, “COVALENTLY ATTACHED AZOBENZENE SWITCHES AND THEIR USES FOR THE OPTICAL CONTROL OF TARGET PROTEINS” (Ludwig-Maximilians-Universität München, priority 2015, dated 2017) come the findings set out here.

Where two headings read alike, the source gives them in different places. A value given as a limit tells only on which side of the number the result lay.

One data set concerns SNAP-tag. The data set can be described thus: In vitro SNAP-tag labeling, SDS page.
In another data set the target is wild type mGluR2 (Rattus norvegicus, UniProt P31421). The settings on record: cells expressing wild type mGluR2 (no SNAP tag) incubated with BGAG12.
Chain of wild type mGluR2 (P31421 19-872): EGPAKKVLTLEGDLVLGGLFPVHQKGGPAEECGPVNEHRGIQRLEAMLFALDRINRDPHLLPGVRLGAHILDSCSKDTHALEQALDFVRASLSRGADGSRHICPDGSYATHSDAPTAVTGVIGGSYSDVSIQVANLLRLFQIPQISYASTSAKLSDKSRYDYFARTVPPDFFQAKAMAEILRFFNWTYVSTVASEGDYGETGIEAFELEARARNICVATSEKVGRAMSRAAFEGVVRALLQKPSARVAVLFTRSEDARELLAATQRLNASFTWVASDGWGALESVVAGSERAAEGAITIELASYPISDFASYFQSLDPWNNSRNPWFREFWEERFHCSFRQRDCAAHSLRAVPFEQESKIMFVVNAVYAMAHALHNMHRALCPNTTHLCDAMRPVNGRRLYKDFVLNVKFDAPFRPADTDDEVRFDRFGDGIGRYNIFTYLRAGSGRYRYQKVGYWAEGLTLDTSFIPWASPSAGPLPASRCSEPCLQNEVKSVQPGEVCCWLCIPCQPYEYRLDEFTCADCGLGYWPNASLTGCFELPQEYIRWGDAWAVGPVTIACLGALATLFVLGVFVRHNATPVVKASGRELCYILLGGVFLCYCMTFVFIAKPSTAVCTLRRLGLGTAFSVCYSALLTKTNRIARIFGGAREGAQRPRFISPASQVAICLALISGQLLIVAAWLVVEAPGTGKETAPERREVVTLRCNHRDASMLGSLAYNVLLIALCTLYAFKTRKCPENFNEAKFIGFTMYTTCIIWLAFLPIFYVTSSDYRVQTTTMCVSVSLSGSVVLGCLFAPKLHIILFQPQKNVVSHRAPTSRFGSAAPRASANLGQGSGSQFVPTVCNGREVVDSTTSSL
Data set [1] is described as follows: Stability of the labeling solution in aqueous buffer (readout: photoactivation of SNAG-mGluR2). The settings on record: one week following dilution in aqueous buffer at room temperature. In kind it is physicochemical.
The test system of data set [2] is SNAP-mGluR2 in hippocampal neurons. The data set can be described thus: Whole cell patch-clamp of hippocampal neurons, excitability. The class given is cell-based, mice. The method, then:
Dissociated hippocampal neuron cultures were prepared from postnatal P0 or P1 mice on 12 mm glass coverslips as previously described (Levitz et al., 2013). Neurons were transfected with SNAP-mGluR2 (1.5 µg/well) and tdTomato (0.25 µg/well as a transfection marker) using the calcium phosphate method at DIV9. Whole cell patch clamp experiments were performed 3-6 days after transfection (DIV 12-15). Labeling was performed using the same protocol as HEK cells except BGAG was diluted in extracellular recording solution containing (in mM): 138 NaCl, 1.5 KCl, 1.2 MgCl2, 2.5 CaCl2, 10 glucose, 5 HEPES, pH 7.4. Glass pipettes of resistance 4-8 MΩ were filled with an intracellular solution containing (in mM): 140 K-gluconate, 10 NaCl, 5 EGTA, 2 MgCl2, 1 CaCl2, 10 HEPES, 2 MgATP and 0.3 Na2GTP, pH 7.2. Autaptic neurons were voltage clamped at -60 mV and a 2-3 ms voltage step to +20 mV was used to evoke a spike followed (~3-5 ms later) by an EPSC. Stimulation was performed once every 12 s to prevent rundown.
We first expressed SNAP-mGluR2-GFP in dissociated hippocampal neurons and labeled with BG-Alexa-647 to determine if SNAP-BG conjugation could occur efficiently in neuronal cultures, which are considerably denser than HEK 293T cell cultures. […]
On the technique in general: In patch-clamp work, channel activity is measured electrically.

Setting [3] is: reductive (DTT), oxidative (GSSG) or neutral conditions.

Description for SNAP-tag: Scale bars represents 50 µM (top) and 10 µM (bottom). • Figure 9: SDS page after in vitro SNAP-tag labeling (New England Biolabs, #P9312S) with BGAG12 and D-MAG. Reductive (dithiothreitol, DTT), oxidative (oxidized glutathione, GSSG) or neutral conditions (no additive) were employed according to the manufacturer's instructions.

Regarding “D-Maleimide-Azobenzene Glutamate [D-MAG]”, the “reaction with SNAP-tag” value was “reacts only under oxidative and neutral conditions” in the data set with SNAP-tag (setting [3]); “unreactive towards the SNAP-tag under reductive conditions” in the data set on SNAP-tag (reductive conditions (DTT)).

Consider `Nc1nc(OCc2ccc(CNC(=O)CCc3cn(CCOCCOCCOCCOCCOCCOCCOCCOCCOCCOCCOCCOCCC(=O)NCC(=O)Nc4ccc(/N=N/c5ccc(NC(=O)CCC[C@@H](C[C@H](N)C(=O)O)C(=O)O)cc5)cc4)nn3)cc2)c2nc[nH]c2n1` [BGAG12, (2S,4S)-2-Amino-4-(4-((4-((E)-(4-(1-(4-(3-((4-(((2-amino-9H-purin-6-yl)oxy)methyl)benzyl)amino)-3-oxopropyl)-1H-1,2,3-triazol-1-yl)-39-oxo-3,6,9,12,15,18,21,24,27,30,33,36-dodecaoxa-40-azadotetracontan-42-amido)phenyl)diazenyl)phenyl)amino)-4-oxobutyl)pentanedioic acid], for which the “reaction with SNAP-tag” value in the data set with SNAP-tag (setting [3]) is recorded as “reacts with SNAP-tag under each condition”. For the same molecule, the light responses entry at wild type mGluR2 is “no light responses”. For the same molecule, the photocurrents entry in the data set with SNAP-mGluR2 (100 nM labeling for 45 minutes) is “photocurrents were still observed”; in the data set on SNAP-mGluR2 (overnight labeling at 100 nM, versus 45 minutes), “increased”. Besides, in the data set on SNAP-mGluR2 (10 µM for 45 minutes at 37 °C, washed, 380 nm, n=10 cells), the “Light responses relative to the responses to saturating glutamate” value worked out at 59.3 ± 2.8%. Further, in the data set on SNAP-mGluR2 (45 minute incubation), the “concentration showing optimal labeling” value is recorded as at least 1 µM. Moreover, the “lowest concentration at which photocurrents were observed” value with SNAP-mGluR2 (overnight labeling) was found to be 10 nM. In addition, the “efficacy of optical activation on reuse of the labeling solution” value in data set [1] was “without a decline in efficacy of optical activation”. Besides, the membrane hyperpolarization in data set [2] (illumination at 380 nm, reversed at 500 nm) is 2-8 mV. The “effect of light-induced hyperpolarization on firing” value in data set [2] (neurons at depolarized potentials that induced firing) is given as “sufficient to inhibit the action potentials”.

In the case of `Nc1nc(OCc2ccc(CNC(=O)CCC(=O)N3Cc4ccccc4-c4c(nnn4CCOCCOCCOCCOCCOCCOCCOCCOCCOCCOCCOCCOCCC(=O)NCCNc4ccc(/N=N/c5ccc(NC(=O)CCC[C@@H](C[C@H](N)C(=O)O)C(=O)O)cc5)cc4)-c4ccccc43)cc2)c2nc[nH]c2n1` [BGAG12(460), (2S,4S)-2-amino-4-(4-((4-((E)-(4-((1-(8-(4-((4-(((2-amino-9H-purin-6-yl)oxy)methyl)-benzyl)amino)-4-oxobutanoyl)-8,9-dihydro-1H-dibenzo[b,f][1,2,3]triazolo[4,5-d]azo-cin-1-yl)-39-oxo-3,6,9,12,15,18,21,24,27,30,33,36-dodecaoxa-40-azadotetra-contan-42-yl)amino)phenyl)diazenyl)phenyl)amino)-4-oxobutyl)pentanedioic acid], in the data set with SNAP-mGluR2 (in the dark after blue light), the Relaxation following illumination result is reported as “rapidly in the dark”. Also, the “photoactivation relative to saturating glutamate” value in the data set with SNAP-mGluR2 (labeling with 10 µM, blue light (420-470 nm bandpass), n=18 cells) is listed as 34.9 ± 4.2%.

Regarding `COCCOCCOCCOCCOCCOCCOCCOCCOCCOCCOCCOCCC(=O)NCC(=O)Nc1ccc(/N=N/c2ccc(NC(=O)CCC[C@@H](C[C@H](N)C(=O)O)C(=O)O)cc2)cc1` [AG12, (2S,4S)-2-Amino-4-(4-oxo-4-((4-((E)-(4-(38-oxo-2,5,8,11,14,17,20,23,26,29,32,35-dodecaoxa-39-azahentetracontan-41-amido)phenyl)diazenyl)phenyl)amino)butyl)-pentanedioic acid], in the data set with SNAP-mGluR2 (PCL version where the BG group was omitted), the “photoagonism of SNAP-mGluR2, directionality” value is “same directionality as BGAG12”.
